# Measured values as given in publication PMC6273488, “Synthesis and Biological Evaluation of Benzochromenopyrimidinones as Cholinesterase Inhibitors and Potent Antioxidant, Non-Hepatotoxic Agents for Alzheimer’s Disease” (Molecules, 2016).
# Where two headings read alike, the source gives them in different places.
# Legend:
# [1] = target: T1, Electrophorus electricus AChE (EeAChE) (Electrophorus electricus, UniProt O42275); settings: cited from earlier work
# T1 construct: purified AChE from Electrophorus electricus (Type V-S, Sigma-Aldrich); purchased Sigma-Aldrich Type V-S
# T1 sequence (O42275 24-633): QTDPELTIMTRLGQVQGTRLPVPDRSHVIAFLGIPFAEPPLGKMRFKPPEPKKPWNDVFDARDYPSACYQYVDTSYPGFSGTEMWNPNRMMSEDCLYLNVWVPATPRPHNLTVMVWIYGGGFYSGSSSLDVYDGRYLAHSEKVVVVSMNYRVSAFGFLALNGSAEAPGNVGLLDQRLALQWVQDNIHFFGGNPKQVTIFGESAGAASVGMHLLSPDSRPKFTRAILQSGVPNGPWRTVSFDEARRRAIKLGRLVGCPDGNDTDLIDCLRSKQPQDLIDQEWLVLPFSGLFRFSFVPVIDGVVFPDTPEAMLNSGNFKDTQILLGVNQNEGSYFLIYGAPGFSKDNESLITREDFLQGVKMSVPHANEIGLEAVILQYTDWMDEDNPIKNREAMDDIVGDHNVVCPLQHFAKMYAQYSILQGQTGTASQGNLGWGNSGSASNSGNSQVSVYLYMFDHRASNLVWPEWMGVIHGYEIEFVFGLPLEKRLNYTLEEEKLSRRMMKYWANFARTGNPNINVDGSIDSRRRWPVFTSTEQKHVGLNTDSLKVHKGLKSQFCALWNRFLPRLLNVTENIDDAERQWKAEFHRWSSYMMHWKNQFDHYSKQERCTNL
# [2] = target: T2, horse serum BuChE (eqBuChE) (Equus caballus, UniProt P81908); settings: cited from earlier work
# T2 construct: BuChE from horse serum (lyophilized powder, Sigma-Aldrich); purchased Sigma-Aldrich; host or cells: horse serum
# T2 sequence (P81908 whole entry): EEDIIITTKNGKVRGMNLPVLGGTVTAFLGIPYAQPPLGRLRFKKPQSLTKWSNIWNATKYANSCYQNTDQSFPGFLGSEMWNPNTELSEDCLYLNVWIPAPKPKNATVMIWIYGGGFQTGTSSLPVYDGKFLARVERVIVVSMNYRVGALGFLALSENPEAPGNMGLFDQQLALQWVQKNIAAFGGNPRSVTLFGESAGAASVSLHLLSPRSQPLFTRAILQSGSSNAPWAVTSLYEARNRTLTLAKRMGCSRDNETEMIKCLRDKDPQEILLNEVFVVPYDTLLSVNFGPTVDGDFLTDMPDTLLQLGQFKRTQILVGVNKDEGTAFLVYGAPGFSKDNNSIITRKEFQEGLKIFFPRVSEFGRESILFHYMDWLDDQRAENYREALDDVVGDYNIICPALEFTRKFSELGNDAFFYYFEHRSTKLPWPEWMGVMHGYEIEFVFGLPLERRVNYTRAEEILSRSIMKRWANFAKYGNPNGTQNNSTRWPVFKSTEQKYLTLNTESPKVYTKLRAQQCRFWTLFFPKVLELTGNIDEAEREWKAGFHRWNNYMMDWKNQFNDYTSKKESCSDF
# in vitro [3] = settings: PAMPA, pH 7.4
# Procedure: Penetration across the BBB is an essential property for compounds targeting the CNS. […] The filter membrane of the donor plate was coated with PBL (Polar Brain Lipid, Avanti, AL, USA) in dodecane (4 µL of 20 mg/mL PBL in dodecane) and the acceptor well was filled with 300 µL of PBS pH 7.4 buffer ([…]). Tested compounds were dissolved first in DMSO and that diluted with PBS pH 7.4 to reach the final concentration 100 µM in the donor well. […] 300 µL of the donor solution was added to the donor wells ([…]) and the donor filter plate was carefully put on the acceptor plate so that coated membrane was “in touch” with both donor solution and acceptor buffer. Test compound diffused from the donor well through the lipid membrane (Area = 0.28 cm^2) to the acceptor well. The concentration of the drug in both donor and the acceptor wells was assessed after 3, 4, 5 and 6 h of incubation in quadruplicate using the UV plate reader Synergy HT (Biotek, Winooski, VT, USA) at the maximum absorption wavelength of each compound.
# HepG2 cells = experiment: in vitro; assay type: cell-based; settings: HepG2, MTT, concentrations up to 1000 μM
# Procedure: (§1) A prerequisite for any effective lead drug is to keep its cytotoxicity at the lowest possible level. In this regard, we submitted the four most promising compounds (3Ab, 3Bb, 3Cb and 3Ba) to an in vitro toxicologic evaluation (MTT assay) using human hepatocellular carcinoma cell line (HepG2) which represents a good probe to evaluate hepatotoxic effects. […].
# (§2) HepG2 cells were purchased from American Type Culture Collection. The cells were cultured in Eagle’s Minimum Essential Medium (Ozyme, France) supplemented with 10% fetal bovine serum, 1X non-essential amino acids, 100 units/mL penicillin and […] streptomycin (Dutscher, Brumath, France). Cultures were kept under a CO2/air (5%/95%) humidified atmosphere at 37 °C. Prior to the experiment, cells were seeded in 96-well culture plates at a density of 0.1 × 10^6 cells per well. After 24 h of incubation, the culture medium was refreshed and 100 µL of the test compounds or DMSO (0.1%) were added. […] For the MTT assay, after 24 h of treatment, cells were incubated with 50 µL MTT (0.5 mg/mL, Sigma Aldrich, city, France) at 37 °C for 2 h. Plates were centrifuged, MTT was removed and 100 µL DMSO was distributed per well. The absorbance at 570 nm was measured using microplate reader (brand). Cell viability was expressed as percentage of cell viability compared to controls (DMSO, 0.1%).
# in vitro [4] = assay type: cell-based; settings: 24 h, MTT, read-out: In vitro toxicity (% cell viability)
# Procedure: as §1, §2
# [5] = ORAC-FL; cited from earlier work
# [6] = related alkaloid and synthetic compounds
compound,measurement,setting,value
"C[n+]1c2n(c(=O)c3ccccc31)CCc1c-2[nH]c2ccccc12 [II, dehydroevodiamine chloride]",IC50,[1],6.3 µM
same,IC50,[2],8.4 µM
O=c1c2ccccc2nc2n1CCCCC2 [Ic],IC50,[1]; [6],279 µM
same,IC50,[2]; unit inferred,> 500 µM
"Nc1c2c(nc3ccccc13)CCCC2 [Tacrine, tacrine, reference compound]",Papp,in vitro [3],5.3 ± 0.19 ×10⁻⁶ cm/s
same,hepatotoxicity on HepG2 cells (in words),HepG2 cells,safe up to 100 µM but significantly decreased cell viability above 300 μM
same,"viability at 24 h, 1 µM","in vitro [4]; HepG2, 1 µM",105 ± 4.6%
same,"viability at 24 h, 3 µM","in vitro [4]; HepG2, 3 µM",104 ± 8.7%
same,"viability at 24 h, 10 µM","in vitro [4]; HepG2, 10 µM",97 ± 6.5%
same,"viability at 24 h, 30 µM","in vitro [4]; HepG2, 30 µM",93 ± 2.7%
same,"viability at 24 h, 100 µM","in vitro [4]; HepG2, 100 µM",95.2 ± 6%
same,"viability at 24 h, 300 µM","in vitro [4]; HepG2, 300 µM",47.6 ± 5.6%
same,"viability at 24 h, 1 mM","in vitro [4]; HepG2, 1 mM",13.9 ± 0.8%
same,ORAC,[5],0.2 ± 0.1 [22] Trolox equivalents
O=c1c2ccccc2nc2n1CCCC2 [Ib],IC50,[1]; [6],38.6 µM
same,IC50,[2]; unit inferred,> 500 µM
